Measurements as given in patent publication US9204630B2, “Capsule formulation” (Syngenta Participations AG, priority 2005, dated 2015).

Experiment: Screen of EC formulations for substances that photoprotect emamectin benzoate
Format: physicochemical
Set-up: key: #1 represents no improvement; #3 represents those photoprotectants that conferred a significant improvement in photostability
Conditions: performance of the photostabiliser relative to the non-photostabilised EC; 2% w/w emamectin benzoate EC, photoprotectant to insecticide 1:1; deposits on glass irradiated in Suntest, HPLC-MS
Description: The photoprotectant to be screened was either dissolved or dispersed in a simple Solvesso 200 based EC formulation containing 2% w/w emamectin benzoate, 10% w/w Soprophor BSU and 3% w/w phenyl sulfonate calx. The weight ratio of photoprotectant to insecticide was 1:1.
The ECs were diluted in water to the typical field application rate of emamectin benzoate, 10 g ai/ha at a spray volume of 200 l/ha. 2 μl droplets were applied to clean glass microscope slides and allowed to dry prior to being irradiated in an Atlas XLS+ Suntest artificial sunlight simulator, which employs a filtered xenon light source providing a spectral energy distribution similar to natural outdoor exposure. After irradiation, deposits were removed from the glass slides by a solvent wash and quantified by high performance liquid chromatography (HPLC) with mass-spectrometric (MS) detection.

Compound	Screen Result
Oc1ccc2ccccc2c1N=Nc1ccccc1 [Example 1N, 1-(phenylazo)-2-naphthalenol]	3
CCN(CCC#N)c1ccc(N=Nc2ccc([N+](=O)[O-])cc2)cc1 [Example 1F, 3-[ethyl[4-[(4-nitrophenyl)azo]phenyl]amino]-propanenitrile]	3
Oc1ccc2ccccc2c1N=Nc1ccc(N=Nc2ccccc2)cc1 [Example 1K]	3
Nc1ccc(N=Nc2ccc([N+](=O)[O-])cc2)cc1 [Example 1G, 4-[(4-nitrophenyl)azo]-benzenamine]	3
Cc1cc(S(=O)(=O)[O-])ccc1N=Nc1c(O)ccc2ccccc12.[Na+] [Example 1C, monosodium 4-[(2-hydroxy-1-naphthalenyl)azo]-3-methyl-benzenesulfonate]	3
Oc1ccc(N=Nc2ccc(N=Nc3ccccc3)c3ccccc23)cc1 [Example 1E, 4-[[4-(phenylazo)-1-naphthalenyl]azo]-phenol]	3
Cc1cc(N=Nc2ccc(N=Nc3c(O)ccc4ccccc34)c(C)c2)ccc1O [Example 1O, 1-[[2-methyl-4-[(2-methylphenol)azo]phenyl]azo]-2-naphthalenol]	3
O=[N+]([O-])c1ccc(N=Nc2ccc(Nc3ccccc3)cc2)cc1 [Example 1D, 4-[(4-nitrophenyl)azo]-N-phenyl-benzenamine]	3
CC1(C)Nc2cccc3c(N=Nc4ccc(N=Nc5ccccc5)c5ccccc45)ccc(c23)N1 [Example 1M, 2,3-dihydro-2,2-dimethyl-6-[[4-(phenylazo)-1-naphthalenyl]azo]-1H-perimidine]	3
COc1ccc(C=C(C(=O)OC2CC(C)(C)N(C)C(C)(C)C2)C(=O)OC2CC(C)(C)N(C)C(C)(C)C2)cc1 [Example 1R, propanedioic acid, [(4-methoxy-phenyl)-methylene]-, bis(1,2,2,6,6-pentamethyl-4-piperidinyl)ester]	3
CC(C)(C)CC(C)(C)c1ccc([O-])c(Sc2cc(C(C)(C)CC(C)(C)C)ccc2[O-])c1.CCCCN.[Ni+2] [Example 1S, 2,2′-thiobis[4-t-octylphenolato]-beta-butylamine nickel (II)]	3
CC(C)Nc1ccc(NC(C)C)c2c1C(=O)c1ccccc1C2=O [Example 1B, 1,4-bis[(1-methylethyl)amino]-9,10-anthracenedione]	3
Cc1ccccc1N=Nc1cc(C)c(N=Nc2c(O)ccc3ccccc23)cc1C [Example 1H, 1-[[2,5-dimethyl-4-[(2-methylphenol)azo]phenyl]azo]-2-naphthalenol]	3
1-[[4-[(dimethylphenyl)azo]dimethylphenyl]azo]-2-naphthalenol [Example 1I]	3
Cc1ccccc1N=Nc1c(O)ccc2ccccc12 [Example 1J, 1-(ortho-tolylazo)-2-naphthol]	3
Nc1c(S(=O)(=O)[O-])cc(Nc2ccccc2)c2c1C(=O)c1ccccc1C2=O.[Na+] [Example 1A, monosodium 1-amino-9,10-dihydro-9,10-dioxo-4-(phenylamino)-2-anthracenesulfonate]	3
